Inhibition and inhibition in vivo data for 13 molecules are collected here from ChEMBL document CHEMBL2029284, “Synthesis and biological evaluation of ticagrelor derivatives as novel antiplatelet agents” (2012).

Active and inactive are the calls of the source. The rule behind the calls is not given here.

The assay concerns Rattus norvegicus. Kind of assay: Antiplatelet activity in Sprague-Dawley rat assessed as ex-vivo inhibition of ADP-induced platelet aggregation at 5 mg/kg, po at 0.5 hrs by Born's method relative to vehicle-treated control. Type of assay: functional.
Consider `CCCSc1nc(N[C@@H]2C[C@H]2c2ccc(F)c(F)c2)c2nnn([C@@H]3C[C@H](OCCOC(=O)c4ccccc4)[C@@H](O)[C@H]3O)c2n1`, for which the inhibition result was “inactive”.

As a reminder, the inhibition in vivo is the percentage by which the read-out fell short of the control. With `CCCSc1nc(N[C@@H]2C[C@H]2c2ccc(F)c(F)c2)c2nnn([C@@H]3C[C@H](O)[C@@H](O)[C@H]3O)c2n1`, the inhibition in vivo at 5 mg/kg worked out at 45.7%.

As to `CCCSc1nc(N[C@@H]2C[C@H]2c2ccc(F)c(F)c2)c2nnn([C@@H]3C[C@H](OC(=O)OCC)[C@@H](O)[C@H]3O)c2n1`, the inhibition in vivo at 5 mg/kg stood at 42.5%.

Consider `CCCSc1nc(N[C@@H]2C[C@H]2c2ccc(F)c(F)c2)c2nnn([C@@H]3C[C@H](OC(=O)c4ccccc4)[C@@H](O)[C@H]3O)c2n1`, for which the inhibition in vivo at 5 mg/kg was 20.1%.

Take `CCCSc1nc(N[C@@H]2C[C@H]2c2ccc(F)c(F)c2)c2nnn([C@@H]3C[C@H](OC(=O)CC)[C@@H](O)[C@H]3O)c2n1`: the inhibition in vivo at 5 mg/kg was found to be 44.5%.

Take `CCCSc1nc(N[C@@H]2C[C@H]2c2ccc(F)c(F)c2)c2nnn([C@@H]3C[C@H](OCCOC(=O)OCC)[C@@H](O)[C@H]3O)c2n1`: the inhibition in vivo at 5 mg/kg is 47.7%.

For `CCCSc1nc(N[C@@H]2C[C@H]2c2ccc(F)c(F)c2)c2nnn([C@@H]3C[C@H](OCCO)[C@@H](O)[C@H]3O)c2n1` [TICAGRELOR], the inhibition in vivo at 5 mg/kg was 66.3%.

For the molecule `CCCSc1nc(N[C@@H]2C[C@H]2c2ccc(F)c(F)c2)c2nnn([C@@H]3C[C@H](OC(=O)C(C)(C)C)[C@@H](O)[C@H]3O)c2n1`, the inhibition entry was “inactive”.

With `CCCSc1nc(N[C@@H]2C[C@H]2c2ccc(F)c(F)c2)c2nnn([C@@H]3C[C@H](OCCOC(=O)C(C)(C)C)[C@@H](O)[C@H]3O)c2n1`, the inhibition in vivo at 5 mg/kg turned out to be 46.1%.

`CCCSc1nc(N[C@@H]2C[C@H]2c2ccc(F)c(F)c2)c2nnn([C@@H]3C[C@H](OC(=O)OCC(C)C)[C@@H](O)[C@H]3O)c2n1`: the inhibition in vivo at 5 mg/kg was 13.2%.

Take `CCCSc1nc(N[C@@H]2C[C@H]2c2ccc(F)c(F)c2)c2nnn([C@@H]3C[C@H](OCCOC(=O)c4cccnc4)[C@@H](O)[C@H]3O)c2n1`: the inhibition result is “inactive”.

On to `CCCSc1nc(N[C@@H]2C[C@H]2c2ccc(F)c(F)c2)c2nnn([C@@H]3C[C@H](OCCOC(=O)CCC)[C@@H](O)[C@H]3O)c2n1`, for which the inhibition result is “inactive”.

For `CCCSc1nc(N[C@@H]2C[C@H]2c2ccc(F)c(F)c2)c2nnn([C@@H]3C[C@H](OC(=O)CCC)[C@@H](O)[C@H]3O)c2n1`, the inhibition in vivo at 5 mg/kg was 28.5%.
